Data from EP4722213A1, “NITROGEN-CONTAINING FUNCTIONAL GROUP-SUBSTITUTED PYRIDAZINOPYRIDONE DERIVATIVE AND USE THEREOF” (Sichuan Huiyu Pharmaceutical Co., Ltd., priority 2023, dated 2024).
Like-named read-outs stand apart in the source and are kept apart here.

How the values were obtained:
[1] = test system: NCI-H358 non-small cell lung cancer cells; test: Inhibition of NCI-H358 cell proliferation (CellTiter-Glo 3D, 7 days); assay type: cell-based; settings: Homo sapiens, NCI-H358, 168 h, 3D microspheres, read-out: Inhibitory activity against NCI-H358 cell proliferation (IC50)
Description: The number of viable cells were detected by CellTiter-Glo 3D® reagent, thereby evaluating the inhibitory effect of compounds on cell proliferation. NCI-H358 non-small cell lung cancer cells (Nanjing cobioer) in the exponential growth phase were digested with trypsin-EDTA, and seeded into 96-well ultra-low attachment microplates at 100 µL per well with a density of 2000 cells/well. The cells were cultured overnight at 37°C with 5% CO2 to form microspheres. The test compounds were serially diluted 5-fold with DMSO to obtain 8 concentration gradient dilutions, then diluted with RPMI-1640 (10% FBS) cell culture medium respectively to obtain compound working solutions (2×). 100 µL per well was added to the cell supernatant, and the culture was continued for 7 days under the conditions of 37°C and 5% CO2. The well plate was removed, and 100 µL of CellTiter-Glo 3D® reagent was added. After lysis at room temperature for 10-30 minutes, 70 µL of the lysate was aspirated and transferred to a white opaque 384-well plate.
The inhibition rate was calculated by the following formula: [formula] Note: The negative control refers to the group without inhibitor, and the blank refers to the group without cells.
The inhibitory activities of some Example compounds and comparative compounds against NCI-H358 cell proliferation are shown in Table 2. Table 2. Inhibitory activity of some Example compounds against NCI-H358 cell proliferation

CYP2C19 = molecular target: T1, CYP2C19 (Homo sapiens, UniProt P33261); test: Inhibition of hepatic drug-metabolizing enzymes in human liver microsomes; assay type: in vitro ADME
T1 construct: human liver microsomes were used as the CYP450 enzyme source; from tissue; host or cells: human liver microsomes
Description: (§1) The main site of drug metabolism is the liver, and the main component of the mixed-function oxidase system present in the liver is the CYP450 enzyme. This enzyme system causes most clinically observed drug-drug interactions, which in turn leads to an increased incidence of adverse drug reactions. CYP450 is a group of supergene family composed of many isozymes, wherein CYP3A4 acts as a major metabolizing enzyme and is involved in the metabolism of nearly half of clinically used drugs. Similarly, CYP2C9 and CYP2C19 also act as important metabolizing enzymes and are involved in the metabolism of various drugs clinically. Therefore, evaluating the risk of drug-drug interactions by testing the inhibitory activity of compounds on CYP450 enzymes at an early stage can improve the safety of medication use.
(§2) In the present disclosure, human liver microsomes were used as the CYP450 enzyme source. The specific probe substrates for each CYP isoenzyme (wherein CYP3A4 used two substrates, midazolam and testosterone, denoted as CYP3A4-M and CYP3A4-T respectively) were incubated with a series of concentrations of the test compound in the presence of the cofactor NADPH. The production amount of metabolites of probe substrates in the incubation system was determined by LC-MS/MS, and the IC50 values of the test compound against each CYP450 enzyme subtype were calculated to evaluate its inhibitory effect on each CYP450 enzyme subtype. During the experiment, 49 µL of PBS, 50 µL of probe substrate, and 50 µL of human liver microsome working solution were sequentially added to the incubation system, followed by the addition of 1 µL of the test compound working solution at each concentration, and the mixture was mixed well. After pre-incubation at 37°C for 5 min, 50 µL of NADPH was added to initiate the reaction. After incubation for the corresponding time, an appropriate amount of ice-cold acetonitrile containing an internal standard was added to terminate the reaction. The mixture was vortexed to mix well, centrifuged, and the supernatant was taken. The supernatant was injected into LC-MS/MS to determine the production amount of metabolites of the probe substrate. Taking the enzyme activity at the 0-concentration point (characterized by the production amount of metabolites) as 100%, the percentage of residual enzyme activity of metabolites at different concentrations of the test compound was calculated. IC50 was calculated by the residual enzyme activity using Graphpad Prism software.

CYP2C9 = molecular target: T2, CYP2C9 (Homo sapiens, UniProt P11712); test: as above; assay type: in vitro ADME
T2 construct: human liver microsomes were used as the CYP450 enzyme source; from tissue; host or cells: human liver microsomes
Description: as §1, §2

CYP3A4 = molecular target: T3, CYP3A4 (Homo sapiens, UniProt P08684); test: Inhibition of hepatic drug-metabolizing enzymes in human liver microsomes (substrates midazolam and testosterone); assay type: in vitro ADME
T3 construct: human liver microsomes were used as the CYP450 enzyme source; from tissue; host or cells: human liver microsomes
Description: as §1, §2

[2] = human liver microsomes, read-out: Inhibitory activity on drug-metabolizing enzymes (IC50, µM) CYP2C19
[3] = human liver microsomes, read-out: Inhibitory activity on drug-metabolizing enzymes (IC50, µM) CYP2C9
[4] = substrate midazolam, read-out: Inhibitory activity on drug-metabolizing enzymes (IC50, µM) CYP3A4-M
[5] = substrate testosterone, read-out: Inhibitory activity on drug-metabolizing enzymes (IC50, µM) CYP3A4-T

T3 sequence (P08684 whole entry): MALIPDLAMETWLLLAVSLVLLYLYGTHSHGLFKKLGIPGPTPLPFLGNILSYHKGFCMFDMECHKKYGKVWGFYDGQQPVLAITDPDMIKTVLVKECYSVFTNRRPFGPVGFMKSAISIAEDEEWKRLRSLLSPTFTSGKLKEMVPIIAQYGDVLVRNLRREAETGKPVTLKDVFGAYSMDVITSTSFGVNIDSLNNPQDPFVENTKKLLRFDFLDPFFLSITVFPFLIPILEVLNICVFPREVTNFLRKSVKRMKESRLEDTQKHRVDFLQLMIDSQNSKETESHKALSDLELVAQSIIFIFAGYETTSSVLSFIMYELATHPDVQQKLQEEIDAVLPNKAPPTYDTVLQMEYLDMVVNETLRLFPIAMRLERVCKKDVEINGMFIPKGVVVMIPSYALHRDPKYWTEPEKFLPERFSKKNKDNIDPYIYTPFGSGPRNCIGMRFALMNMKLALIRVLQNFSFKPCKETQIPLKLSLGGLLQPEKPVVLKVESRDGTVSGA
T2 sequence (P11712 whole entry): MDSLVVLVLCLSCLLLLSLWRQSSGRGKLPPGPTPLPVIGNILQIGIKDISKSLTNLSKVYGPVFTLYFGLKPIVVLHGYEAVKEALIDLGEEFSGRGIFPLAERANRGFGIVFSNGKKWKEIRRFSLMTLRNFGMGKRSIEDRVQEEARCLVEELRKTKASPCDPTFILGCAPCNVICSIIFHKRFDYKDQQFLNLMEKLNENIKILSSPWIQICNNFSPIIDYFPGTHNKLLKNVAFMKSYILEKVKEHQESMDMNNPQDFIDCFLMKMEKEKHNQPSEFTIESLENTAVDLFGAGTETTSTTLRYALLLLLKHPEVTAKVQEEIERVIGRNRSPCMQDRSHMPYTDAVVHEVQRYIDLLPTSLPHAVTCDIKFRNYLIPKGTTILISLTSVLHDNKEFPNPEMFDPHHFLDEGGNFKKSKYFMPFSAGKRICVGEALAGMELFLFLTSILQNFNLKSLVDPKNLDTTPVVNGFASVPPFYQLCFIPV
T1 sequence (P33261 whole entry): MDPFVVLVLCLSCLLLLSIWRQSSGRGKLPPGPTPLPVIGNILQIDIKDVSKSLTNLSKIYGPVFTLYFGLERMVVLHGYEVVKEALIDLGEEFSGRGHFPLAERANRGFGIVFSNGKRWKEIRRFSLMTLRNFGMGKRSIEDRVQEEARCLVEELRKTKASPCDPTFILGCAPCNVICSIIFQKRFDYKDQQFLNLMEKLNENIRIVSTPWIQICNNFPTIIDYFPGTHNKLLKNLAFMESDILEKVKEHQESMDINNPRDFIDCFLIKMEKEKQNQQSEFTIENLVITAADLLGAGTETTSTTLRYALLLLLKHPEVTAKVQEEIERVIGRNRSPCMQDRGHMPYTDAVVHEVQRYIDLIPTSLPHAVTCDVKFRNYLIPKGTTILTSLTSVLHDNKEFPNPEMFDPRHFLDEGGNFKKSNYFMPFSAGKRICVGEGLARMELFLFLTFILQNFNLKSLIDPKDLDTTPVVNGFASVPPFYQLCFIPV

Row | Structure (SMILES) | IC50 [1] | IC50 (CYP2C19; [2]) | IC50 (CYP2C9; [3]) | IC50 (CYP3A4; [4]) | IC50 (CYP3A4; [5]) | IC50 (CYP2C19) | IC50 (CYP2C9) | IC50 (CYP3A4; Inhibitory activity on drug-metabolizing enzymes (IC50, µM) CYP3A4-M, substrate midazolam) | IC50 (CYP3A4; Inhibitory activity on drug-metabolizing enzymes (IC50, µM) CYP3A4-T, substrate testosterone)
1 | CCN1CCN(c2nnc(N[C@H](C)c3cccc(C(F)F)c3F)c3cn(N4CCOCC4)c(=O)cc23)CC1 [Example 109, (R)-4-((1-(3-(difluoromethyl)-2-fluorophenyl)ethyl)amino)-1-(4-ethylpiperazin-1-yl)-6-morpholinopyrido[3 ,4-d]pyridazin-7(6H)-one] | 0.0166 µM | > 10 µM | > 10 µM | > 10 µM | > 10 µM | – | – | – | –
2 | CNc1nnc(N[C@H](C)c2cccc(C(F)(F)F)c2C)c2cn(C3CC3)c(=O)cc12 [Example 52, (R)-6-cyclopropyl-4-((1-(2-methyl-3-(trifluoromethyl)phenyl)ethyl)amino)-1-(methylamino)pyrid o[3,4-d]pyridazin-7(6H)-one] | 0.0615 µM | > 10 µM | > 10 µM | > 10 µM | > 10 µM | – | – | – | –
3 | CCN1CCN(c2nnc(N[C@H](C)c3cccc(C(F)F)c3F)c3cn(C4(C)CC4)c(=O)cc23)CC1 [Example 216, (R)-4-((1-(3-(difluoromethyl)-2-fluorophenyl)ethyl)amino)-1-(4-ethylpiperazin-1-yl)-6-(1-methylcyclopropyl) pyrido[3,4-d]pyridazin-7(6H)-one] | 0.0364 µM | > 10 µM | > 10 µM | > 10 µM | > 10 µM | – | – | – | –
4 | CC(C)N1CCN(c2nnc(N[C@H](C)c3cccc(C(F)F)c3F)c3cn(C4(C)CC4)c(=O)cc23)CC1 [Example 217, (R)-4-((1-(3-(difluoromethyl)-2-fluorophenyl)ethyl)amino)-1-(4-isopropylpiperazin-1-yl)-6-(1-methylcyclopropyl) pyrido[3,4-d]pyridazin-7(6H)-one] | 0.0471 µM | > 10 µM | > 10 µM | > 10 µM | > 10 µM | – | – | – | –
5 | CC(C)Nc1nnc(N[C@H](C)c2cccc(C(F)F)c2F)c2cn(C3(C)CC3)c(=O)cc12.O=CO [Example 12, (R)-4-((1-(3-(difluoromethyl)-2-fluorophenyl)ethyl)amino)-1-(isopropylamino)-6-(1-methylcyclopropyl) pyrido[3,4-d]pyridazin-7(6H)-one formate] | 0.0363 µM | > 10 µM | > 10 µM | > 10 µM | > 10 µM | – | – | – | –
6 | CCN1CCN(c2nnc(N[C@H](C)c3cccc(C(F)F)c3F)c3cn(C4CC(F)(F)C4)c(=O)cc23)CC1 [Example 98, (R)-6-(3,3-difluorocyclobutyl)-4-((1-(3-(difluoromethyl)-2-fluorophenyl)ethyl)amino)-1-(4-ethylpiperazin-1-yl)pyrido[3,4-d]pyridazin-7(6H)-one] | 0.0376 µM | > 10 µM | > 10 µM | > 10 µM | > 10 µM | – | – | – | –
7 | CNc1nnc(N[C@H](C)c2cccc(C(F)(F)F)c2C)c2cn(C3(C)CC3)c(=O)cc12 [Example 73, (R)-4-((1-(2-methyl-3-(trifluoromethyl)phenyl)ethyl)amino)-1-(methylamino)-6-(1-methylcyclopropyl) pyrido[3,4-d]pyridazin-7(6H)-one] | 0.0147 µM | > 10 µM | > 10 µM | > 10 µM | > 10 µM | – | – | – | –
8 | CNc1nnc(N[C@H](C)c2cccc(C(F)F)c2F)c2cn(C3(C)CC3)c(=O)cc12.O=CO [Example 9, (R)-4-((1-(3-(difluoromethyl)-2-fluorophenyl)ethyl)amino)-1-(methylamino)-6-(1-methylcyclopropyl) pyrido[3,4-d]pyridazin-7(6H)-one formate] | 0.0426 µM | > 10 µM | > 10 µM | > 10 µM | > 10 µM | – | – | – | –
9 | C[C@@H](Nc1nnc(N2CCN(C3CCCC3)CC2)c2cc(=O)n(N3CCOCC3)cc12)c1cccc(C(F)F)c1F [Example 120, (R)-4-((1-(3-(difluoromethyl)-2-fluorophenyl)ethyl)amino)-1-(4-cyclopentylpiperazin-1-yl)-6-morpholinopyrido[3 ,4-d]pyridazin-7(6H)-one] | 0.0249 µM | > 10 µM | > 10 µM | > 10 µM | > 10 µM | – | – | – | –
10 | C[C@@H](Nc1nnc(N2CCN(C)CC2)c2cc(=O)n(C3CC3)cc12)c1cccc(C(F)F)c1F [Example 77] | 0.0396 µM | – | – | – | – | > 10 µM | > 10 µM | 7.81 µM | > 10 µM
11 | C[C@@H](Nc1nnc(N2CCN(C)CC2)c2cc(=O)n(N3CCOCC3)cc12)c1cccc(C(F)F)c1F [Example 110, (R)-4-((1-(3-(difluoromethyl)-2-fluorophenyl)ethyl)amino)-1-(4-methylpiperazin-1-yl)-6-morpholinopyrido[3 ,4-d]pyridazin-7(6H)-one] | 0.0096 µM | > 10 µM | > 10 µM | > 10 µM | > 10 µM | – | – | – | –
12 | CC(C)N1CCN(c2nnc(N[C@H](C)c3cccc(C(F)F)c3F)c3cn(N4CCOCC4)c(=O)cc23)CC1 [Example 111, (R)-4-((1-(3-(difluoromethyl)-2-fluorophenyl)ethyl)amino)-1-(4-isopropylpiperazin-1-yl)-6-morpholinopyrido[3 ,4-d]pyridazin-7(6H)-one] | 0.0144 µM | > 10 µM | > 10 µM | > 10 µM | > 10 µM | – | – | – | –
13 | C[C@@H](Nc1nnc(N2CCN(C)CC2)c2cc(=O)n(C3(C)CC3)cc12)c1cccc(C(F)F)c1F.O=CO [Example 80, (R)-4-((1-(3-(difluoromethyl)-2-fluorophenyl)ethyl)amino)-6-(1-methylcyclopropyl)-1-(4-methylpiperazin-1-yl)pyrido[3,4-d]pyridazin-7(6H)-one formate] | 0.0208 µM | > 10 µM | > 10 µM | > 10 µM | > 10 µM | – | – | – | –
14 | C[C@@H](Nc1nnc(N2CCN(C(C)(C)C)CC2)c2cc(=O)n(C3(C)CC3)cc12)c1cccc(C(F)F)c1F.O=CO [Example 222, (R)-1-(4-(tert-butyl)piperazin-1-yl)-4-((1-(3-(difluoromethyl)-2-fluorophenyl)ethyl)amino)-6-(1-methylcyclopropyl) pyrido[3,4-d]pyridazin-7(6H)-one formate] | 0.0334 µM | > 10 µM | > 10 µM | > 10 µM | > 10 µM | – | – | – | –
15 | C[C@@H](Nc1nnc(N2CCN(C)CC2)c2cc(=O)n(C3CCC3)cc12)c1cccc(C(F)F)c1F [Example 88, (R)-6-cyclobutyl-4-((1-(3-(difluoromethyl)-2-fluorophenyl)ethyl)amino)-1-(4-methylpiperazin-1-yl)pyrido[3,4-d]pyridazin-7(6H)-one] | 0.0231 µM | > 10 µM | > 10 µM | > 10 µM | > 10 µM | – | – | – | –
16 | CCN1CCN(c2nnc(N[C@H](C)c3cccc(C(F)F)c3F)c3cn(C4CCC4)c(=O)cc23)CC1 [Example 112, (R)-6-cyclobutyl-4-((1-(3-(difluoromethyl)-2-fluorophenyl)ethyl)amino)-1-(4-ethylpiperazin-1-yl)pyrido[3,4-d]pyridazin-7(6H)-one] | 0.0202 µM | > 10 µM | > 10 µM | > 10 µM | > 10 µM | – | – | – | –
